Like-named read-outs stand apart in the source and are kept apart here.
Experiments:
[1] = juvenile female rats, after 3 days of drug administration; cited from earlier work
T47D:A18/PKCα tumors = test: T47D:A18/PKCα xenograft tumor regression; format: in vivo, mice; conditions: for persistence of T47D:A18/PKCα tumor regression after end of treatment: after two weeks of 1.5 mg/day p.o.; for T47D:A18/PKCα tumor regression / T47D:A18/PKCα mean tumor size: at two weeks; for T47D:A18/PKCα tumor regression: 1.5 mg/day p.o. (E2: capsule), start ~0.5 cm^2 = 100%; for T47D:A18/PKCα mean tumor size: 1.5 mg/day p.o.
[2] = test system: T47D/PKCα xenograft tumors; test: T47D/PKCα TAM-resistant xenograft tumors (Example 11); format: in vivo, mice; conditions: TTC-352 or raloxifene 1.5 mg/day p.o., seven weeks, also after withdrawal; E2 capsule
T47D:A18/PKCα cells [3] = conditions: reference 11; cited from earlier work
[4] = test system: MCF-7 human mammary cancer cells; conditions: references 16-19; cited from earlier work
[5] = test system: Ishikawa human endometrial cancer cells; conditions: references 16-19; cited from earlier work
uteri [6] = conditions: references 29-32, cited from earlier work
[7] = humans; cited from earlier work
uteri [8] = test: Uterine weights of ovariectomized athymic mice (7 weeks); format: in vivo; conditions: following 7 weeks of treatment; 1.5 mg/day p.o. (E2: capsule)
T47D:A18/neo cells [9] = test: Colony formation assay in […], T47D:A18/neo; format: cell-based; conditions: 3D culture, 10 days; E2 1 nM, BTC 100 nM, TTC-352 100 nM
Method: (§1) Colony formation assay in […] Matrix. […] (Becton Dickinson, Franklin Lakes, N.J. USA) was thawed overnight at 4° C. Twelve-well plates were coated with 200 μL […]/well and incubated at 37° C. for 30 min. Cells were suspended at 5×103 in 400 μL of phenol red-free RPMI 1640 and spread onto pre-gelled […] and allowed to incubate at 37° C. for 30 minutes, and 360 μL of treatment media containing 40 μL […] was then added. Plates were incubated at 37° C. for 10 days; medium containing 10% […] was replaced to the top of the […] every 3 days. Colonies were stained with crystal violet on day 10 and each well was counted by light microscopy (20×).
(§2) These concentrations were selected on the basis of proliferative effects in 2D cultures.

T47D:A18/PKCα cells [10] = test: Colony formation assay in […], T47D:A18/PKCα; format: cell-based; conditions: 3D culture, 10 days; E2 1 nM, BTC 100 nM, TTC-352 100 nM
Method: as §1, §2

T47D:A18/neo tumors = test: T47D:A18/neo xenograft tumor growth; format: in vivo, mice; conditions: for T47D:A18/neo average tumor size: following seven weeks of treatment, 1.5 mg/day p.o. (E2: capsule); for stimulation of growth of T47D:A18/neo xenograft tumors in vivo: 1.5 mg/day p.o., seven weeks
[11] = test system: T47D-Tam1 xenograft tumors; test: T47D-Tam1 TAM-resistant xenograft tumors (Example 11); format: in vivo, mice; conditions: TTC-352 1.5 mg/day p.o. daily for seven weeks; E2 capsule
[12] = silastic capsules (1.0 cm) implanted subcutaneously; reference 14; cited from earlier work
T47D:A18/neo cells [13] = test: DNA growth assay (2D culture), T47D:A18/neo; format: cell-based; conditions: only the higher concentration, 100 nM, E2 1 nM
T47D:A18/PKCα cells [14] = test: DNA growth assay (2D culture), T47D:A18/PKCα; format: cell-based; conditions: E2-free media, 1 nM, 10 nM, 100 nM
[15] = test system: ERα transcriptional activity in T47D:A18/neo cells; format: cell-based
[16] = test system: ERα transcriptional activity in T47D:A18/PKCα cells; test: ERE-luciferase reporter assay, T47D:A18/PKCα; format: cell-based; conditions: for ER agonist character in T47D:A18/PKCα cells in vitro: ERE-luciferase, 1 nM, 10 nM, 100 nM
ERα = biological target: T1, ERα (Homo sapiens, UniProt P03372); test: ERα localization in T47D:A18/PKCα tumors by immunofluorescence; format: in vivo, mice; conditions: immunofluorescence staining of tumors
T1 sequence (P03372 1-595): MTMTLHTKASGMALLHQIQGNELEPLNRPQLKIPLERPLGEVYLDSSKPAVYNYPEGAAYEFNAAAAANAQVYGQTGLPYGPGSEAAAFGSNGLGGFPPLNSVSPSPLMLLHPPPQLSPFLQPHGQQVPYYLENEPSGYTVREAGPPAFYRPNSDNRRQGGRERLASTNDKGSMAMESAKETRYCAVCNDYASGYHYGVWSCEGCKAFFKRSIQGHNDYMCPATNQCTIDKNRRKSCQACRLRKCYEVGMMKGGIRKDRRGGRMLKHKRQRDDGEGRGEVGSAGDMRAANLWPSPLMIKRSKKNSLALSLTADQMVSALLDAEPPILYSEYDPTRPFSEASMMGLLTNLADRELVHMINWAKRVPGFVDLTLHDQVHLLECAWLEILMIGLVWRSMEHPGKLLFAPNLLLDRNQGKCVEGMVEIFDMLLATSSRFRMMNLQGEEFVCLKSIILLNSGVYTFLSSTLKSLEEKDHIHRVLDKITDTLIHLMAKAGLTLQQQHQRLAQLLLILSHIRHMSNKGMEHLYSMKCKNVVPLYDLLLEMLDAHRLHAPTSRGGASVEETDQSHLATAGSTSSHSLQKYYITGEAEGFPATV
Method: Tumor immunofluorescence confocal microscopy and co-localization analysis. Tumor sections (4 μm) were cut from paraffin blocks and prepared for IF staining by deparaffinization and rehydration. Antigen retrieval was performed by incubating slides in Tris-EDTA (pH=9.0) buffer at 90° C. and allowed to cool at room temperature for 45 min. Slides were blocked with antibody diluent (DAKO, Carpinteria, Calif. USA) for 20 min followed by primary antibody at 1:100 in antibody diluent for 1 h at room temperature. Slides were incubated with fluorescence-conjugated secondary antibodies at 1:100 in antibody diluent for 45 min at room temperature followed by DAPI (4′, 6-diamidino-2-phenylindole [1 μg/mL], DAKO, Carpinteria, Calif. USA) for 15 min. Slides were mounted with Vectashield mounting media (Vector Laboratories, Burlingame, Calif. USA). Confocal analysis was performed with a Zeiss LSM 510 microscope (Carl Zeiss, Incorporated, North America, Thornwood, N.Y. USA).
We have previously reported the possible involvement of an extranuclear ER in E2-induced tumor regression (11, 15).

[17] = Body weights of mice bearing T47D:A18/neo tumors; format: in vivo; conditions: seven week treatment, 1.5 mg/day p.o.
From the text: B) Body weights of treated mice from (A). C) Uterine weights from mice in (A). Weights are reported as uterine weight (mg)/body weight (g). *, P<0.05 versus control. Graphs show mean SEM.
Since BTC and TTC-352 treatment result in growth of T47D:A18/neo cells in 2D culture (FIGS. 1C and 1E) and in 3D […] (FIG. 2A), we next sought to determine if BTC and TTC-352 could sustain the growth of T47D:A18/neo tumors in vivo. […] Additionally, no significant weight loss was observed over the seven week treatment period (FIG. 5B).

uteri [18] = test: Uterine weights of mice (Example 11); format: in vivo; conditions: TTC-352 1.5 mg/day
[19] = Plasma levels of BTC after oral administration to mice; format: in vivo; conditions: single oral dose 10 mg/kg, ovariectomized athymic nude mice

| SMILES | persistence of T47D:A18/PKCα tumor regression after end of treatment (T47D:A18/PKCα tumors) | T47D:A18/PKCα tumor regression (T47D:A18/PKCα tumors) | T47D/PKCα xenograft tumor response [2] | estrogen agonist/antagonist character in MCF-7 cells [4] | estrogen agonist/antagonist character in Ishikawa cells [5] | uterine weights of ovariectomized mice (uteri [8]) | T47D:A18/neo colony growth in MATRIGEL (T47D:A18/neo cells [9]) | T47D:A18/PKCα colony formation in MATRIGEL (T47D:A18/PKCα cells [10]) | T47D:A18/neo average tumor size (T47D:A18/neo tumors) | T47D-Tam1 xenograft tumor response [11] | effect on the proliferation of T47D:A18/neo cells relative to E2 (T47D:A18/neo cells [13]) | proliferation of T47D:A18/PKCα cells (DNA content) (T47D:A18/PKCα cells [14]) | ER agonist character in T47D:A18/PKCα cells in vitro [16] | T47D:A18/PKCα mean tumor size (T47D:A18/PKCα tumors) | ERα localization in regressing T47D:A18/PKCα tumors (ERα) | stimulation of growth of T47D:A18/neo xenograft tumors in vivo (T47D:A18/neo tumors) | body weight of treated mice [17] | potency in Ishikawa cells relative to E2 [5] | also measured |
| --- | --- | --- | --- | --- | --- | --- | --- | --- | --- | --- | --- | --- | --- | --- | --- | --- | --- | --- | --- |
| Oc1ccc(-c2sc3cc(O)ccc3c2Oc2ccc(OCCN3CCCCC3)cc2)cc1 [DMA, Desmethylarzoxifene] | – | – | – | – | – | – | – | – | – | – | – | – | – | – | – | – | – | – | remaining drug in plasma [1]: not observed above detection limits |
| O=C(c1ccc(OCCN2CCCCC2)cc1)c1c(-c2ccc(O)cc2)sc2cc(O)ccc12 [RAL, raloxifene] | failure of RAL-induced regression to persist after drug withdrawal | ~50% | caused tumor regression, however, drug withdrawal led to relapse | estrogen antagonist | estrogen antagonist | – | – | – | – | – | – | – | – | – | – | – | – | – | T47D:A18/PKCα MATRIGEL colony formation (previously reported) (T47D:A18/PKCα cells [3]): unable to inhibit MATRIGEL colony formation; luminal epithelial cell thickness in ovariectomized rats (uteri [6]; doses up to 10 mg/kg/day): did not increase luminal epithelial cell thickness; uterine weight in ovariectomized rats (uteri [6]; minimally effective dose): did not increase uterine weight; oral clearance [7]: 441 kg⁻¹ h⁻¹ |
| CC/C(=C(\c1ccccc1)c1ccc(OCCN(C)C)cc1)c1ccccc1 [TAM, tamoxifen] | – | – | TAM-resistant | – | – | significant proliferative actions | – | – | – | – | – | – | – | – | – | – | – | – | – |
| C[C@]12CC[C@@H]3c4ccc(O)cc4CC[C@H]3[C@@H]1CC[C@@H]2O [E2, 17β-estradiol, reference compound] | – | ~98% | growth is inhibited by E2 treatment | – | – | significant proliferative actions | stimulated | inhibited | ~0.35 cm^2 | growth is inhibited by E2 treatment | – | – | – | – | – | – | – | – | mean serum E2 level [12]: 379.5 pg/mL |
| Oc1ccc(Oc2sc3cc(O)ccc3c2-c2ccc(F)cc2)cc1 [TTC-352, 3-(4-fluorophenyl)-2-(4-hydroxyphenoxy)benzo[b]thiophen-6-ol] | sustained for at least four weeks post-treatment | ~70% | tumor regression comparable to that of E2-treated tumors | estrogen agonist | nanomolar estrogen agonists | no significant increase in the uterine weights | stimulated | inhibited | ~0.1 cm^2 | tumor regression comparable to that of E2-treated tumors | comparable to E2(1 nM) treatment | proliferated in the presence of BTC and TTC-352 at all concentrations tested | act as ER agonists | ~0.18 cm^2 | exit of ERα from the nucleus | neither compound was able to significantly stimulate the growth | no effect | three orders of magnitude below that of E2 | ERα transcriptional activity (ERE-luciferase) in T47D:A18/neo cells ([15]; 24 hours): increase in ERα transcriptional activity; uterine weight in mice (uteri [18]): did not increase uterine weight |
| Oc1ccc(-c2cc3ccc(O)cc3s2)cc1 [BTC, 2-(4-hydroxyphenyl)benzo[b]thiophen-6-ol] | sustained for at least four weeks post-treatment | ~88% | – | estrogen agonist | nanomolar estrogen agonists | no significant increase in the uterine weights | stimulated | inhibited | ~0.04 cm^2 | – | comparable to E2(1 nM) treatment | proliferated in the presence of BTC and TTC-352 at all concentrations tested | act as ER agonists | ~0.07 cm^2 | exit of ERα from the nucleus | neither compound was able to significantly stimulate the growth | no effect | three orders of magnitude below that of E2 | ERα transcriptional activity (ERE-luciferase) in T47D:A18/neo cells [15]: increase in ERα transcriptional activity; ERE-luciferase induction in T47D:A18/PKCα cells compared with T47D:A18/neo cells ([16]; 100 nM and 10 nM): more sensitive than T47D:A18/neo cells; concentration at 6 h ([19]; female, mouse, plasma, 6 h): 10 ng/mL; peak plasma concentration ([19]; at 30 min): 40 ng/mL |

Source: US10888545B2, “Compositions and methods for treating estrogen-related medical disorders” (THE BOARD OF TRUSTEES OF THE UNIVERSITY OF ILLINOIS, priority 2012, dated 2021)
